Results taken from ChEMBL document CHEMBL1146606, “CoMFA and homology-based models of the glycine binding site of N-methyl-d-aspartate receptor” (J Med Chem, 2003).

What was measured:
[1] = target: Glutamate [NMDA] receptor; assay: Inhibition of [3H]DCKA binding to N-methyl-D-aspartate glutamate receptor; assay type: protein-complex assay
[2] = target: Glutamate [NMDA] receptor; assay: Compound was tested for inhibition of [3H]DCKA binding to N-methyl-D-aspartate glutamate receptor; assay type: protein-complex assay; parameters: unit not given here

| IC50 [1] | Log 1/IC50 [2] | Compound |
| --- | --- | --- |
| 1800 nM | -0.25 | Oc1nc2ccc(Cl)cc2nc1O |
| 3300 nM | -0.52 | Cc1cc2nc(O)c(O)nc2cc1C |
| 280 nM | 0.55 | Oc1nc2cc(Cl)cc(Cl)c2nc1O |
| 9800 nM | -0.99 | Oc1nc2ccccc2nc1O |
| 780 nM | 0.11 | Cc1cc2nc(O)c(O)nc2cc1Cl |
| 73 nM | 1.14 | Cc1c(C#N)cc2nc(O)c(O)nc2c1[N+](=O)[O-] |
| 7 nM | 2.15 | O=Nc1c(O)nc2cc(Cl)c(Cl)c(Cl)c2c1O |
| 61000 nM | -1.78 | O=[N+]([O-])c1c(O)nc2cccc(Cl)c2c1O |
| > 100000 nM | -2 | Oc1nc2ncccc2c(O)c1-c1ccccc1 |
| 730 nM | 0.14 | Oc1nc2c(F)c(F)c(F)c(F)c2nc1O |
| 31000 nM | -1.49 | Oc1nc2ncccc2c(O)c1-c1cccc(Oc2ccccc2)c1 |
| 2800 nM | -0.45 | N#Cc1cc([N+](=O)[O-])c2nc(O)c(O)nc2c1 |
| 95 nM | 1.02 | Cc1c(F)cc2nc(O)c(O)nc2c1[N+](=O)[O-] |
| 82 nM | 1.09 | CCc1cc2nc(O)c(O)nc2c([N+](=O)[O-])c1Br |
| 220 nM | 0.66 | O=[N+]([O-])c1c(O)nc2cc(Cl)cc(Cl)c2c1O |
| 910 nM | 0.04 | O=Nc1c(O)nc2c(F)c(Cl)c(F)cc2c1O |
| 3300 nM | -0.52 | O=Nc1c(O)nc2c(F)c(F)c(F)c(F)c2c1O |
| 53 nM | 1.28 | O=Nc1c(O)nc2cc(Cl)ccc2c1O |
| > 100000 nM | -2 | O=[N+]([O-])c1c(O)nc2ccc(Cl)cc2c1O |
| 53000 nM | -1.72 | COc1cc2nc(O)c(O)nc2c(OC(C)=O)c1OC |
| 150 nM | 0.82 | Cc1c(Cl)cc2nc(O)c(O)nc2c1N |
| 2100 nM | -0.32 | Cc1cc(C)c2nc(O)c(O)nc2c1 |
| 3100 nM | -0.49 | O=c1[nH]c2cc3c(c([N+](=O)[O-])c2[nH]c1=O)CCC3 |
| > 100000 nM | -2 | O=[N+]([O-])c1c(O)nc2c(Cl)cccc2c1O |
| 34000 nM | -1.53 | O=[N+]([O-])c1c(O)nc2ccccc2c1O |
| 2900 nM | -0.46 | COc1cccc(-c2c(O)nc3cc(Cl)cnc3c2O)c1 |
| 4.7 nM | 2.33 | Cc1c(Cl)cc2nc(O)c(O)nc2c1[N+](=O)[O-] |

| IC50 [1] | Log 1/IC50 [2] | Compound |
| --- | --- | --- |
| 40000 nM | -1.6 | O=[N+]([O-])c1c(O)nc2c(F)c(Cl)c(F)cc2c1O |
| 9300 nM | -0.97 | Cc1cc([N+](=O)[O-])c2nc(O)c(O)nc2c1 |
| > 100000 nM | -2 | Oc1nc2cccnc2c(O)c1-c1ccccc1 |
| > 100000 nM | -2 | Oc1nc2ncc(Cl)cc2c(O)c1-c1ccccc1 |
| 12 nM | 1.92 | O=Nc1c(O)nc2cc(Cl)c(Cl)cc2c1O |
| 1900 nM | -0.28 | COc1c(F)cc2nc(O)c(O)nc2c1[N+](=O)[O-] |
| 29 nM | 1.54 | CCc1cc2nc(O)c(O)nc2c([N+](=O)[O-])c1Cl |
| 170 nM | 0.77 | O=Nc1c(O)nc2ccc(Cl)c(Cl)c2c1O |
| 130 nM | 0.89 | CCc1c(Cl)cc2nc(O)c(O)nc2c1[N+](=O)[O-] |
| 20000 nM | -1.3 | Oc1nc2ccncc2c(O)c1-c1cccc(Oc2ccccc2)c1 |
| 23 nM | 1.64 | Oc1nc2cc(Cl)cnc2c(O)c1Oc1cccc(-c2ccccc2)c1 |
| 3000 nM | -0.48 | Oc1nc2cc(Cl)cnc2c(O)c1-c1cccc(Cl)c1 |
| 110 nM | 0.96 | Oc1nc2cc(Cl)cnc2c(O)c1-c1cccc(Oc2ccccc2)c1 |
| 160 nM | 0.8 | CCc1cc2nc(O)c(O)nc2c([N+](=O)[O-])c1CC |
| 290 nM | 0.54 | Cc1cc(C)c2c(O)c([N+](=O)[O-])c(O)nc2c1 |
| 400 nM | 0.4 | O=[N+]([O-])c1c(O)nc2cc(Cl)c(Cl)cc2c1O |
| 640 nM | 0.19 | CCSc1c(Cl)cc2nc(O)c(O)nc2c1[N+](=O)[O-] |
| 29 nM | 1.54 | Cc1cc2nc(O)c(O)nc2c([N+](=O)[O-])c1C |
| 5400 nM | -0.73 | Oc1nc2cnccc2c(O)c1-c1cccc(Oc2ccccc2)c1 |
| > 100000 nM | -2 | O=[N+]([O-])c1c(O)nc2c(F)c(F)c(F)c(F)c2c1O |
| 45 nM | 1.35 | Cc1cc2nc(O)c(O)nc2c([N+](=O)[O-])c1Cl |
| 13000 nM | -1.11 | Oc1nc2cc(Cl)cnc2c(O)c1-c1ccc(Cl)cc1 |
| 9800 nM | -0.99 | Oc1nc2cc(Cl)cnc2c(O)c1-c1cccs1 |
| 19000 nM | -1.28 | Oc1nc2ncc(Cl)cc2c(O)c1-c1cccc(Oc2ccccc2)c1 |
| 1400 nM | -0.15 | O=Nc1c(O)nc2ccccc2c1O |
| 37 nM | 1.43 | Cc1cc(C)c2c(O)c(N=O)c(O)nc2c1 |
| 220 nM | 0.66 | O=[N+]([O-])c1c(O)nc2cc(Cl)c(Cl)c(Cl)c2c1O |

| IC50 [1] | Log 1/IC50 [2] | Compound |
| --- | --- | --- |
| 4000 nM | -0.6 | O=[N+]([O-])c1c(OCCCc2ccccc2)c(F)cc2nc(O)c(O)nc12 |
| 630 nM | 0.2 | Oc1nc2cc(F)c(Cl)c(F)c2nc1O |
| 1500 nM | -0.18 | O=[N+]([O-])c1c(O)nc2cc(Cl)ccc2c1O |
| 17000 nM | -1.23 | COc1cc2nc(O)c(O)nc2c(O)c1OC |
| 8.7 nM | 2.06 | Cc1c(Br)cc2nc(O)c(O)nc2c1[N+](=O)[O-] |
| 17000 nM | -1.23 | COc1cc2nc(O)c(O)nc2cc1OC |
| 150 nM | 0.82 | COc1c(Cl)cc2nc(O)c(O)nc2c1[N+](=O)[O-] |
| 1400 nM | -0.15 | CCc1cc2nc(O)c(O)nc2cc1Cl |
| 1800 nM | -0.25 | Cc1cccc(-c2c(O)nc3cc(Cl)cnc3c2O)c1 |
| 7400 nM | -0.87 | O=[N+]([O-])c1cccc(-c2c(O)nc3cc(Cl)cnc3c2O)c1 |
| 33 nM | 1.48 | O=Nc1c(O)nc2cc(Cl)cc(Cl)c2c1O |
| 4300 nM | -0.63 | CCCCOc1c(F)cc2nc(O)c(O)nc2c1[N+](=O)[O-] |
| 3400 nM | -0.53 | O=Nc1c(O)nc2ccc(Cl)cc2c1O |
| 24000 nM | -1.38 | Oc1nc2cc(Cl)cnc2c(O)c1-c1ccccc1Cl |
| 30 nM | 1.53 | Oc1nc2cc(Cl)c(Cl)c(Cl)c2nc1O |
| 11000 nM | -1.04 | Nc1c(F)cc2nc(O)c(O)nc2c1[N+](=O)[O-] |
| 16000 nM | -1.2 | Oc1nc2cc3ccccc3cc2nc1O |
| > 100000 nM | -2 | Oc1nc2cc3c(cc2nc1O)OCO3 |
| > 100000 nM | -2 | Oc1cc2nc(O)c(O)nc2cc1O |
| > 100000 nM | -2 | O=Nc1c(O)nc2c(Cl)cccc2c1O |
| 3600 nM | -0.56 | CCOc1c(F)cc2nc(O)c(O)nc2c1[N+](=O)[O-] |
| > 100000 nM | -2 | O=[N+]([O-])c1c(O)nc2c(Cl)c(Cl)c(Cl)cc2c1O |
| 15000 nM | -1.17 | Oc1nc2cc3c(cc2nc1O)CCC3 |
| 1800 nM | -0.26 | CCc1cc2nc(O)c(O)nc2cc1CC |
| 1000 nM | 0 | COc1cc2nc(O)c(O)nc2cc1Br |
